According to article PMC10959927, “Platinum iodido drugs show potential anti-tumor activity, affecting cancer cell metabolism and inducing ROS and senescence in gastrointestinal cancer cells” (Communications Biology, 2024):
Values joined by “and” are separate entries in the source; they are usually repeats but may differ in a detail not shown here. Identical values can stand only once. Like-named read-outs stand apart in the source and are kept apart here.

Legend:
[1] = system: telomeres, 36B4, MT-COX1, MT-CYB DNA of MKN45 cells; experiment: Oxidized bases (FPG-sensitive lesions) in genome regions by qPCR; format: cell-based, human; settings: MKN45, IC50 concentration 24 h, normalized to control, single replicates
Excerpt: (§1) Total cellular DNA from MKN45 and PANC1 cells was extracted using an NZY Tissue gDNA Isolation Kit (Nzytech, MB13503) following the manufacturer’s instructions and quantified using a Nanodrop (Nanodrop Spectrophotometer ND-1000, ThermoFisher Scientific, Wilmington, DE, USA). We adapted the procedure described by O’Callaghan et al.[76] to measure oxidative DNA damage at telomeres, 36B4 genomic region and at mitochondrial DNA (MT-COX1, MT-CYB). This is a qPCR method based on differences in PCR kinetics between DNA template digested by Formamidopyrimidine DNA Glycosylase (FPG, Cat no. M0240S) and undigested DNA. This enzyme recognizes and cuts 8-oxoguanine, producing apurinic sites that are converted into single-strand breaks by its apurinic sites lyase activity. These single-strand breaks inhibit the PCR, thus, the ΔCT after digesting DNA by […] (Ct digested–Ct undigested) is proportional to the oxidative damage in the amplified region. DNA was incubated with 8 Units of FPG during 3 h in FPG buffer (NEB1, M0240S). The reaction was stopped by incubation at 95 °C for 5 min. qPCR analysis was performed on 40 ng of digested or undigested genomic DNA. Each qPCR was performed in triplicate including no-template controls in a StepOne Real‐time PCR System (Applied Biosystems, 4376357). Target genes (Table 3) were amplified using SYBR Green (Applied Biosystems, MB345). Thermal cycling of the qPCR reaction was initiated with a denaturation step at 95 °C for 10 min. The process consisted of 40 cycles (denaturation at 95 °C for 15 sec, annealing at 60 °C for 30 sec, and elongation at 72 °C for 30 sec). This experiment was repeated three independent times with 10–12 replicates.

[2] = system: telomeres, 36B4, MT-COX1, MT-CYB DNA of PANC1 cells; experiment: as above; format: cell-based, human; settings: PANC1, IC50 concentration 24 h, normalized to control, single replicates
Excerpt: as §1

PANC1 cells [3] = experiment: Cell viability, crystal violet staining; settings: for Cell Viability without NAC: PANC1 cells, Fig. S6A; for IC50: read-out: IC50 concentration (± SD) at 48 h, 48 h
Procedure: (§2) Cell viability was assessed using a crystal violet-based staining method. […] The cells (2 × 10^5) were seeded in 24-multiwell dishes in 0.5 mL of complete medium and incubated overnight. […] After 48 h, cells were fixed with 1% glutaraldehyde (20–30 min), washed with distilled water, and stained with 0.1% crystal violet. […] IC50 were calculated by using GraphPad Prism (version 8.0). Nonlinear regression was used to fit the data to the log (inhibitor) versus response (variable slope).

MKN45 cells [4] = experiment: Cell viability, crystal violet staining; settings: for Cell Viability without NAC: MKN45 cells, Fig. S6A; for IC50: read-out: IC50 concentration (± SD) at 48 h, 48 h
Procedure: as §2

AGS cells [5] = experiment: Cell viability, crystal violet staining; settings: for Cell Viability without NAC: AGS cells, Fig. S6A; for IC50: read-out: IC50 concentration (± SD) at 48 h, 48 h
Procedure: as §2

PANC1 cells [6] = experiment: SA-β-Gal activity, CellEvent Senescence Green flow cytometry;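 also: IC50 concentration of each compound relative to untreated control set as 1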; format: cell-based, human; settings: Fig. 3A, replicate values
Procedure, shortened: (§3)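 AGS, MKN45 or PANC1 cells (5×10^4) were seeded in 24-well plates overnight before treatment. For flow cytometry, cells were PFA-fixed and stained with CellEvent Senescence Green probe (1:500), read at ex 488/em 530/30 nm. For histochemistry, cells were treated 3 h, then kept 24 h in fresh medium before SA-β-Gal staining.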

AGS cells [7] = experiment: as above; format: cell-based, human; settings: Fig. 3A, replicate values
Procedure, shortened: as §3

MKN45 cells [8] = experiment: Clonogenic (CFU) assay with or without NAC; format: cell-based, human; settings: 10 days
Procedure: (§4) For the clonogenic assay we used two different approaches. […] Then, cells were cultured in a 6-well plate at a very low concentration (2 × 10^3 cells per well) and incubated for 10 days. […] To evaluate the role of ROS in cell proliferation, we supplemented the growth medium with 0.5 mM NAC. After 10 days, the cells were fixed with 1% glutaraldehyde and stained with 0.1% crystal violet. The number of colonies was quantified directly and reflected as CFUs: Colony Forming Units.

AGS cells [9] = experiment: Clonogenic (CFU) assay with or without NAC; format: cell-based, human; settings: 10 days
Procedure: as §4

CC2509 fibroblasts = experiment: Cell viability, crystal violet staining, non-tumoral cells; settings: CC2509, 48 h
Procedure: as §2

HPDE cells = experiment: as above; settings: for percentage of viable cells: 48 h
Procedure: as §2

[10] = read-out: IC50 concentration (± SD) at 48 h in non-tumoral cell lines
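For Fold change % Senescence in this document: IC50 concentration of each compound relative to untreated control set as 1.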

## CC(C)[NH][Pt@SP3]([I])([I])[NH]C(C)C [I5, trans-[PtI2(isopropylamine)2]]
[1]; FPG-digested vs undigested
  TEL (Fold change - ΔCt TEL), oxidative DNA damage: 0.4976 and 1.204 and 0.863 and 1.649 and 1.472 and 1.233 and 1.0991 and 1.079 and 1.087 and 1.22
[1]
  36B4 (Fold change - ΔCt 36B4), oxidative DNA damage: 1.703 and 1.211 and 0.8373 and 1.374 and 1.447 and 1.358 and 1.5791 and 1.8961 and 1.25 and 1.252 and 1.777
  MT-COX1 (Fold change - ΔCt MT-COX1), oxidative DNA damage: 1.17 and 1.1588 and 1.212 and 1.316 and 0.8751 and 0.7769 and 2.591 and 2.527 and 2.762 and 3.255
  MT-CYB (Fold change - ΔCt MT-CYB), oxidative DNA damage: 1.053 and 0.8867 and 1.024 and 1.423 and 1.446 and 1.223 and 1.361 and 1.391 and 5.526 and 1.559 and 1.507 and 3.466
[2]; FPG-digested vs undigested
  TEL (Fold change - ΔCt TEL), oxidative DNA damage: -0.2993 and -0.2888 and -0.1094 and 0.05784 and 0.7794 and 0.6409 and 1.117 and 1.284 and 1.153 and 1.2407
[2]
  36B4 (Fold change - ΔCt 36B4), oxidative DNA damage: 1.4221 and 1.29 and 0.7644 and 2.073 and 2.467 and 2.333 and 2.539 and 4.489 and 2.165 and 1.996 and 1.737
  MT-COX1 (Fold change - ΔCt MT-COX1), oxidative DNA damage: 1.203 and 1.298 and 1.208 and 1.316 and 1.536 and 0.9948 and 1.085 and 1.109 and 1.083 and 1.329
  MT-CYB (Fold change - ΔCt MT-CYB), oxidative DNA damage: 1.015 and 1.063 and 1.122 and 1.165 and 2.0159 and 1.972 and 2.298 and 2.283 and 3.887 and 4.47 and 3.714 and 6.805
PANC1 cells [3]; dose 10 µM
  Cell Viability without NAC: 85.9915 and 83.1095 and 92.9481
PANC1 cells [3]; dose 25 µM
  Cell Viability without NAC: 34.4587 and 38.5831 and 38.2547
PANC1 cells [3]; dose 50 µM
  Cell Viability without NAC: 18.5972 and 30.025 and 31.7453
PANC1 cells [3]; dose 75 µM
  Cell Viability without NAC: 17.1129 and 21.5975 and 27.2406
PANC1 cells [3]; PANC1, NAC (+) 0.5 mM
  IC50: > 100 µM
PANC1 cells [3]; PANC1, NAC (-)
  IC50: 18 µM and 20 µM and 18.2 µM
MKN45 cells [4]; dose 10 µM
  Cell Viability without NAC: 97.9702 and 91.0232 and 100.944
MKN45 cells [4]; dose 25 µM
  Cell Viability without NAC: 85.8879 and 70.3076 and 69.3928
MKN45 cells [4]; dose 50 µM
  Cell Viability without NAC: 44.0762 and 29.818 and 39.7772
MKN45 cells [4]; dose 75 µM
  Cell Viability without NAC: 32.4358 and 27.3279 and 29.4931
MKN45 cells [4]; MKN45, NAC (+) 0.5 mM
  IC50: > 100 µM
MKN45 cells [4]; MKN45, NAC (-)
  IC50: 30 µM and 28.7 µM
AGS cells [5]; AGS
  IC25 concentration: 15 µM
AGS cells [5]; dose 10 µM
  Cell Viability without NAC: 104.459
AGS cells [5]; dose 50 µM
  Cell Viability without NAC: 35.6312
AGS cells [5]; dose 75 µM
  Cell Viability without NAC: 33.3189
AGS cells [5]; AGS, NAC (+) 0.5 mM
  IC50: > 100 µM
AGS cells [5]; AGS, NAC (-)
  IC50: 40 µM and 38.2 µM
PANC1 cells [6]
  Fold change % Senescence: 2.58 fold change and 1.93 fold change and 2.21 fold change
AGS cells [7]
  Fold change % Senescence: 2.4 fold change and 2.38 fold change and 2.1 fold change
MKN45 cells [8]; MKN45 + NAC 0.5 mM, IC25 concentration
  colonies (CFUs), mean ± SD: 99 ± 6
MKN45 cells [8]; MKN45 + NAC 0.5 mM, IC50 concentration
  colonies (CFUs), mean ± SD: 52 ± 21
MKN45 cells [8]; MKN45, IC25 concentration, no NAC
  colonies (CFUs), mean ± SD: 0
MKN45 cells [8]; MKN45, IC50 concentration, no NAC
  colonies (CFUs), mean ± SD: 0
AGS cells [9]; AGS + NAC 0.5 mM, IC25 concentration
  colonies (CFUs), mean ± SD: 106 ± 46
AGS cells [9]; AGS + NAC 0.5 mM, IC50 concentration
  colonies (CFUs), mean ± SD: 2.3 ± 2.5
AGS cells [9]; AGS, IC25 concentration, no NAC
  colonies (CFUs), mean ± SD: 0
AGS cells [9]; AGS, IC50 concentration, no NAC
  colonies (CFUs), mean ± SD: 0
CC2509 fibroblasts; dose 2.5 µM
  percentage of viable cells: 100.938% and 100.862% and 91.106%
CC2509 fibroblasts; dose 5 µM
  percentage of viable cells: 83.0553% and 85.5747% and 89.9658%
CC2509 fibroblasts; dose 10 µM
  percentage of viable cells: 93.9868% and 89.8276% and 94.7548%
CC2509 fibroblasts; dose 25 µM
  percentage of viable cells: 85.5057% and 58.6494% and 84.1505%
CC2509 fibroblasts; dose 50 µM
  percentage of viable cells: 74.4584% and 49.6552% and 58.3178%
CC2509 fibroblasts; dose 100 µM
  percentage of viable cells: 38.4658% and 29.1313% and 33.9772%
CC2509 fibroblasts; [10]
  IC50: 74.1 ± 5.42 µM
HPDE cells; dose 2.5 µM
  percentage of viable cells: 94.0083% and 103.787% and 91.0112%
HPDE cells; dose 5 µM
  percentage of viable cells: 95.3512% and 98.9765% and 89.3059%
HPDE cells; dose 10 µM
  percentage of viable cells: 88.9979% and 69.4985% and 69.7172%
HPDE cells; dose 25 µM
  percentage of viable cells: 58.8843% and 42.8352% and 30.2314%
HPDE cells; dose 50 µM
  percentage of viable cells: 20.4029% and 27.175% and 15.1157%
HPDE cells; [10]
  IC50: 26 µM and 25 µM and 26.8 µM
